Experimental data published in US20240140986A1, “SYNTHETIC URSOLIC ACID DERIVATIVES AND METHODS OF USE THEREOF” (REATA PHARMACEUTICALS, INC., priority 2021, published 2024).
Like-named read-outs stand apart in the source and are kept apart here.

What was measured:
[1] = test system: IFNγ-induced NO production in RAW 264.7 cells; experiment: Nitric Oxide Suppression Assay (IFNγ-induced NO, Griess nitrite readout); assay type: cell-based, mouse; settings: for IC50: Mus musculus; for Avg NO IC50 Relative to RTA402 (fold): Table 2, ratio to RTA402
Method: Tissue Culture: RAW 264.7, a mouse macrophage cell line, was obtained from American Type Culture Collection (Manassas VA) and maintained in the log phase of growth in Roswell Park Memorial Institute Medium 1640 (RPMI 1640) supplemented with 10% heat inactivated fetal bovine serum and 1% penicillin-streptomycin. Cells were cultured and maintained in a humidified incubator at 37° C. under 5% C02. Cells were sub-cultured every 2-4 days. All cell culture supplies were obtained from Life Technologies (Grand Island, NY) and VWR (Radnor, PA).
Nitric Oxide Suppression Assay. RAW 264.7 cells were plated 1 day in advance of experimental treatments at a concentration of 30,000 cells per well onto Falcon-96 well clear bottom plates (Corning, NY) in a total volume of 200 μL per well using RPMI 1640 supplemented with 0.5% fetal bovine serum and 1% penicillin-streptomycin. The next day, cells were pretreated with compounds serially diluted from 1000×stocks. All compounds were dissolved in dimethyl sulfoxide (DMSO) usually at 10 mM stock solutions. Compounds were subsequently diluted in DMSO and RPMI 1640. Each well received a final concentration of 0.1% DMSO. Cells were pretreated for 2 hours and incubation at 37° C., followed by treatment with 20 ng/mL of interferon gamma (R&D Systems, Minneapolis, MN) per well for 24 hours. The next day, a nitrite standard was serially diluted from 100 μM to 1.6 μM in RPMI 1640. Afterwards, 50 μL of cell culture supernatant was transferred from each well into a new Falcon-96 well clear bottom plate. Nitrite was measured as surrogate for nitric oxide using Promega's Griess Detection Kit #G2930 (Madison, WI) which involves the addition of 50 μL of the provided sulfanilamide solution to each well of the transferred cell culture supernatant and standards, followed by a 10-minute incubation at room temperature. Next, 50 μL of the provided N-1-napthylethylenediamine dihydrochloride (NED) solution was added to the sulfanilamide reaction and incubated for 10 minutes at room temperature in the dark. Afterwards, air bubbles were removed using ethanol vapor and absorbance was measured using a Spectramax M2e plate reader with a wavelength set to 525 nm. Viability was assessed using WST-1 cell proliferation reagent from Roche (Basel, Switzerland). After media was removed for the Nitric Oxide suppression assay, 15 μL of WST-1 reagent was added to each well of cells. Plates were briefly mixed on an orbital shaker and the cells were incubated at 37° C. for 30-90 minutes. Absorbance was measured using a Spectramax M2e plate reader with wavelengths set to 440 nm and 700 nm.
For the ability of compounds to suppress the increase in nitric oxide release caused by interferon gamma, the absolute amount of nitrite that was produced in each well was extrapolated from the nitrite standards using a linear regression fit. All values were then normalized to the DMSO-interferon gamma treated wells and plotted as percent nitric oxide. IC50 values were calculated using Excel and/or GraphPad Prism (San Diego, CA).

[2] = test system: Nrf2 / ARE-dependent luciferase in AREc32 reporter cell line; experiment: AREc32 luciferase reporter activation (Nrf2 induction); assay type: cell-based, human; settings: for EC (2-fold): Homo sapiens, Arec32; for Relative Avg AREc32 EC2X Relative to RTA402 (fold): ratio to RTA402
Method: Effect on Ludferase Reporter Activation. Nrf2 is a transcription factor that binds to the antioxidant response element (ARE) sequence in the promoter regions of its target genes. AREc32 reporter cell line (derived from human breast carcinoma MCF7 cells) was obtained was from CXR Bioscience Limited (Dundee, UK) and cultured in DMEM (low glucose) supplemented with 10% FBS, 1% penicillin/streptomycin, and 0.8 mg/ml Geneticin (G418). This cell line is stably transfected with a luciferase reporter gene under the transcriptional control of eight copies of the rat GSTA2 ARE sequence (5′-GTGACAAAGCA-3′) (Wang et al., 2006). Expression of Firefly luciferase from this reporter plasmid is controlled by binding of Nrf2 to these ARE sequences. Measurement of ARE-dependent luciferase activity allows quantitative assessment of Nrf2 induction. AREc32 cell line has previously been used in studies characterizing different Nrf2 activators (Dinkova-Kostova & Wang, 2011; Roubalová et al., 2016; Roubalová et al, 2017; Wu et al, 2012).
The effect of several compounds disclosed herein on luciferase reporter activation was assessed in the AREc32 reporter cell line (see Table 10 and Table 11). This cell line is derived from human breast carcinoma MCF-7 cells and is stably transfected with a luciferase reporter gene under the transcriptional control of eight copies of the antioxidant response element from the rat Gsta2 gene, an Nrf2 target gene (Frilling et al., 1990). AREc32 cells were plated in black 96-well plates in 200 μL media at 20,000 cells per well. Twenty-four hours after plating, cells were treated with vehicle (DMSO) or test compounds at concentrations ranging from 0.03 to 1000 nM for nineteen hours. Media was removed and 100 μL of 1:1 mixture of the One-Glo Luciferase assay reagent and culture medium was added to each well. After incubation for 5 min at room temperature, the luminescence signal was measured on a PHERAstar plate reader. The EC2X value was determined using Excel and GraphPad Prism software. The fold increase in luminescence signal for cells treated with each concentration of compound relative to cells treated with vehicle was determined and a dose-response curve was generated. The dose-response curve was fit using nonlinear regression analysis and used to extrapolate the EC2X value. The EC2X value is defined as the concentration of test compound required to increase the luminescence signal 2-fold above levels in vehicle-treated samples.

[3] = RAW264.7, Table 2, RAW 264.7 cells, 2 h pretreatment, 20 ng/mL interferon gamma 24 h, read-out: Avg NO IC50 (nM) (Mean ± SD)
[4] = Table 2, concentration increasing luminescence 2-fold above vehicle, 19 h treatment, read-out: Avg AREc32 EC2X (nM) (Mean ± SD)
[5] = RAW264.7, Table 3, oleanolic acid derivative analogs, read-out: Avg NO IC50
[6] = Table 3, oleanolic acid derivative analogs, read-out: Avg ARE EC-2X

Structure (SMILES) | IC50 [1, 3] [nM] | Avg NO IC50 Relative to RTA402 (fold) [1] [fold] | IC50 [1, 5] [nM] | IC50 ([1]; RAW264.7, Table 3, ursolic acid derivatives, read-out: Avg NO IC50 (nM) (Mean ± SD)) | EC (2-fold) [2, 4] [nM] | Relative Avg AREc32 EC2X Relative to RTA402 (fold) ([2]; Table 2) | EC (2-fold) [2, 6] [nM] | EC (2-fold) ([2]; Table 3, ursolic acid derivatives, read-out: Avg ARE EC-2X (nM) (Mean ± SD))
CN1CCN(C[C@]23CCC(C)(C)C[C@H]2[C@H]2C(=O)C=C4[C@@]5(C)C=C(C#N)C(=O)C(C)(C)[C@@H]5CC[C@@]4(C)[C@]2(C)CC3)C1=O [CC44, reference compound] |  |  | 1.2 |  |  |  | 6.07 | 
C[C@@H]1[C@H]2[C@H]3C(=O)C=C4[C@@]5(C)C=C(C#N)C(=O)C(C)(C)[C@@H]5CC[C@@]4(C)[C@]3(C)CC[C@@]2(C(=O)NO)CC[C@H]1C [Compound T72] | 36.1 ± 13.8 | 20.20 ± 5.71 |  |  | 17.2 ± 7 | 1.71 ± 0.33 |  | 
CNC(=O)NC[C@]12CCC(C)(C)C[C@H]1[C@H]1C(=O)C=C3[C@@]4(C)C=C(C#N)C(=O)C(C)(C)[C@@H]4CC[C@@]3(C)[C@]1(C)CC2 [CC26, reference compound] |  |  | 0.5 |  |  |  | 2.75 | 
C[C@@H]1[C@H]2[C@H]3C(=O)C=C4[C@@]5(C)C=C(C#N)C(=O)C(C)(C)[C@@H]5CC[C@@]4(C)[C@]3(C)CC[C@@]2(CN2CCC2)CC[C@H]1C [Compound T55] | 14.6 ± 3 | 5.21 ± 2.77 |  | 14.6 ± 3 | 14.4 ± 1.3 | 1.12 ± 0.09 |  | 14.4 ± 1.3
C[C@@H]1[C@H]2[C@H]3C(=O)C=C4[C@@]5(C)C=C(C#N)C(=O)C(C)(C)[C@@H]5CC[C@@]4(C)[C@]3(C)CC[C@@]2(O)CC[C@H]1C [Compound T68] | 7.24 ± 0.77 | 2.70 ± 0.28 |  |  | 7.56 ± 0.77 | 0.575 ± 0.141 |  | 
C[C@@H]1[C@H]2[C@H]3C(=O)C=C4[C@@]5(C)C=C(C#N)C(=O)C(C)(C)[C@@H]5CC[C@@]4(C)[C@]3(C)CC[C@@]2(n2ccnn2)CC[C@H]1C [Compound T60] | 18.2 ± 6.2 | 4.94 ± 1.78 |  |  | 8.89 ± 1.13 | 0.791 ± 0.111 |  | 

Further lines, with some results ahead:

IC50 [1, 3] [nM] | Avg NO IC50 Relative to RTA402 (fold) [1] [fold] | IC50 [1, 5] [nM] | IC50 ([1]; RAW264.7, Table 3, ursolic acid derivatives, read-out: Avg NO IC50 (nM) (Mean ± SD)) | Structure (SMILES) | EC (2-fold) [2, 4] [nM] | Relative Avg AREc32 EC2X Relative to RTA402 (fold) ([2]; Table 2) | EC (2-fold) [2, 6] [nM] | EC (2-fold) ([2]; Table 3, ursolic acid derivatives, read-out: Avg ARE EC-2X (nM) (Mean ± SD))
6.75 ± 2.19 | 3.29 ± 0.81 |  |  | C[C@H]1[C@H](C)CCC23CC[C@@]4(C)[C@]5(C)CC[C@H]6C(C)(C)C(=O)C(C#N)=C[C@]6(C)C5=CC(=O)[C@]4(OC2)[C@H]13 [Compound T12] | 9.2 ± 2.7 | 0.724 ± 0.074 |  | 
13.3 ± 3.7 | 7.08 ± 3.49 |  |  | Cc1noc(C[C@]23CC[C@@H](C)[C@H](C)[C@H]2[C@H]2C(=O)C=C4[C@@]5(C)C=C(C#N)C(=O)C(C)(C)[C@@H]5CC[C@@]4(C)[C@]2(C)CC3)n1 [Compound T96] | 10.6 ± 0.7 | 1.32 ± 0.21 |  | 
2.79 ± 0.59 | 0.82 ± 0.08 |  |  | COC(=O)N1CCC(=O)N1C[C@]12CC[C@@H](C)[C@H](C)[C@H]1[C@H]1C(=O)C=C3[C@@]4(C)C=C(C#N)C(=O)C(C)(C)[C@@H]4CC[C@@]3(C)[C@]1(C)CC2 [Compound T53] | 1.74 ± 0.47 | 0.173 ± 0.054 |  | 
15.9 ± 7 | 5.93 ± 3.56 |  |  | CC(=O)OCCNC[C@]12CC[C@@H](C)[C@H](C)[C@H]1[C@H]1C(=O)C=C3[C@@]4(C)C=C(C#N)C(=O)C(C)(C)[C@@H]4CC[C@@]3(C)[C@]1(C)CC2 [Compound T43] | 10.1 ± 1 | 0.8 ± 0.1 |  | 
 |  | 17.3 |  | CC1(C)CC[C@]2(CN3CCOC3)CC[C@]3(C)[C@H](C(=O)C=C4[C@@]5(C)C=C(C#N)C(=O)C(C)(C)[C@@H]5CC[C@]43C)[C@@H]2C1 [CC42, reference compound] |  |  | 122 | 
